Converted amounts (≈) assume the structure as drawn.
Experiments:
[1] = test system: Trichophyton mentagrophytes; assay: Antifungal activity against Trichophyton mentagrophytes; assay type: functional, organism-based
Micrococcus luteus = assay: Antibacterial activity against Micrococcus luteus; assay type: functional
Cryptococcus neoformans = assay: Antifungal activity against Cryptococcus neoformans; assay type: functional, organism-based
Bacillus subtilis = assay: Antibacterial activity against Bacillus subtilis; assay type: functional
Escherichia coli = assay: Antibacterial activity against Escherichia coli; assay type: functional
Staphylococcus aureus = assay: Antibacterial activity against Staphylococcus aureus; assay type: functional
Aspergillus niger = assay: Antifungal activity against Aspergillus niger; assay type: functional, organism-based
Candida albicans = assay: Antifungal activity against Candida albicans; assay type: functional, organism-based

IC50 [1] [µg/mL]	MIC (Micrococcus luteus) [µg/mL]	IC50 (Cryptococcus neoformans) [µg/mL]	MIC (Bacillus subtilis) [µg/mL]	MIC (Escherichia coli) [µg/mL]	MIC (Staphylococcus aureus) [µg/mL]	IC50 (Aspergillus niger) [µg/mL]	IC50 (Candida albicans) [µg/mL]	Structure (SMILES)
> 32	> 32	> 32	> 32	> 32	> 32	> 32	> 32	CCCCCCCCCCCCCCCCC1=C[C@H](C(=O)OC)[C@H]2C(=O)C(C(=O)OC)=C(CCCCCCCCCCCCCCCC)[C@@]2(O)[C@H]1C(=O)OC (racemic)
> 32	> 32	4 (≈ 5.28 µM)	> 32	32 (≈ 42.3 µM)	> 32	> 32	32 (≈ 42.3 µM)	CCCCCCCCCCCCCCCCC1=C(C(=O)OC)C2=C(C(=O)[C@H](C(=O)OC)[C@H]2CCCCCCCCCCCCCCCC)C(C(=O)OC)C1 (some centres undefined) [MANZAMENONE N]
> 32	> 32	8 (≈ 10.5 µM)	> 32	32 (≈ 42.2 µM)	16 (≈ 21.1 µM)	> 32	32 (≈ 42.2 µM)	CCCCCCCCCCCCCCCCC1=C[C@H](C(=O)O)[C@H]2C(=O)C(C(=O)OC)=C(CCCCCCCCCCCCCCCC)[C@@]2(O)[C@H]1C(=O)OC
